In PubChem BioAssay AID248 (DTP/NCI, 2004):
“And” between values parts separate entries of the source, which are not always exact repeats. Equal entries are not always repeated. Inconclusive results and toxic doses are left out. No stated cut-off is given here; in the data, active means T/C of 150% or more; inactive means T/C below 125%.

Tested on: L1210 leukemia ip in BDF1 mice, survival T/C
Experiment: NCI In Vivo Anticancer Drug Screen. Data for tumor model L1210 Leukemia (intraperitoneal) in B6D2F1 (BDF1) mice
Settings: endpoint: mean survival time, higher = longer survival
Outline: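 Tumor was transplanted into mice, which were then dosed with test compound or vehicle alone. Survival was recorded for each group, and the treated figure was expressed relative to the control figure.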

[1] = dose: 100.0 mg/kg/injection, schedule: Q01DX001 (ip), vehicle: saline
[2] = dose: 200.0 mg/kg/injection, schedule: Q01DX001 (ip), vehicle: saline
[3] = dose: 400.0 mg/kg/injection, schedule: Q01DX001 (ip), vehicle: saline
[4] = dose: 100.0 mg/kg/injection, schedule: Q01DX009 (ip), vehicle: Klucel (hydroxypropylcellulose) (HPC)
[5] = dose: 100.0 mg/kg/injection, schedule: Q04DX002 (ip), vehicle: Klucel (hydroxypropylcellulose) (HPC)
[6] = dose: 100.0 mg/kg/injection, schedule: Q04DX003 (ip), vehicle: Klucel (hydroxypropylcellulose) (HPC)
[7] = dose: 200.0 mg/kg/injection, schedule: Q04DX002 (ip), vehicle: Klucel (hydroxypropylcellulose) (HPC)
[8] = dose: 200.0 mg/kg/injection, schedule: Q04DX003 (ip), vehicle: Klucel (hydroxypropylcellulose) (HPC)
[9] = dose: 400.0 mg/kg/injection, schedule: Q04DX002 (ip), vehicle: Klucel (hydroxypropylcellulose) (HPC)
[10] = dose: 400.0 mg/kg/injection, schedule: Q04DX003 (ip), vehicle: Klucel (hydroxypropylcellulose) (HPC)
[11] = dose: 100.0 mg/kg/injection, schedule: Q04DX003 (ip), vehicle: saline with Tween-80
[12] = dose: 200.0 mg/kg/injection, schedule: Q04DX003 (ip), vehicle: saline with Tween-80
[13] = dose: 400.0 mg/kg/injection, schedule: Q04DX003 (ip), vehicle: saline with Tween-80
[14] = dose: 75.0 mg/kg/injection, schedule: Q01DX001 (ip), vehicle: saline
[15] = dose: 150.0 mg/kg/injection, schedule: Q01DX001 (ip), vehicle: saline
[16] = dose: 50.0 mg/kg/injection, schedule: Q01DX009 (ip), vehicle: saline with Tween-80
[17] = dose: 100.0 mg/kg/injection, schedule: Q01DX009 (ip), vehicle: saline with Tween-80
[18] = dose: 200.0 mg/kg/injection, schedule: Q01DX009 (ip), vehicle: saline with Tween-80
[19] = dose: 100.0 mg/kg/injection, schedule: Q01DX001 (ip), vehicle: carboxymethylcellulose (CMC)
[20] = dose: 200.0 mg/kg/injection, schedule: Q01DX001 (ip), vehicle: carboxymethylcellulose (CMC)
[21] = dose: 400.0 mg/kg/injection, schedule: Q01DX001 (ip), vehicle: carboxymethylcellulose (CMC)
[22] = dose: 12.5 mg/kg/injection, schedule: Q01DX009 (ip), vehicle: saline with Tween-80
[23] = dose: 100.0 mg/kg/injection, schedule: Q04DX003 (ip), vehicle: saline

Measured: T/C

CC(C)CCOC(=O)N(C)c1ccccc1
inactive: dose: 75.0 mg/kg/injection, schedule: Q04DX002 (ip), vehicle: Klucel (hydroxypropylcellulose) (HPC) 101 % of control | dose: 150.0 mg/kg/injection, schedule: Q04DX002 (ip), vehicle: Klucel (hydroxypropylcellulose) (HPC) 105 % of control | dose: 300.0 mg/kg/injection, schedule: Q04DX002 (ip), vehicle: Klucel (hydroxypropylcellulose) (HPC) 105 % of control

[O-][n+]1c2ccccc2nn1-c1ccccc1
inactive: [1] 95 % of control | [2] 96 % of control | [3] 97 % of control

Cc1cc([N+](=O)[O-])ccc1NC(=O)Nc1cccc(F)c1
inactive: [4] 96 % of control | [5] 90 % of control | [6] 95 % of control | dose: 200.0 mg/kg/injection, schedule: Q01DX009 (ip), vehicle: Klucel (hydroxypropylcellulose) (HPC) 94 % of control | [7] 88 % of control | [8] 95 % of control | dose: 400.0 mg/kg/injection, schedule: Q01DX009 (ip), vehicle: Klucel (hydroxypropylcellulose) (HPC) 88 % of control | [9] 88 % of control | [10] 95 % of control

Cc1ccc(SCCn2cnc3c(ncn3Cc3ccccc3)c2=S)cc1
inactive: [11] 96 % of control | [12] 109 % of control | [13] 101 % of control

Cc1nc(C(=O)NN)co1
inactive: dose: 5.0 mg/kg/injection, schedule: Q01DX001 (ip), vehicle: saline 106 % of control | dose: 10.0 mg/kg/injection, schedule: Q01DX001 (ip), vehicle: saline 110 % of control | dose: 20.0 mg/kg/injection, schedule: Q01DX001 (ip), vehicle: saline 101 % of control | dose: 40.0 mg/kg/injection, schedule: Q01DX001 (ip), vehicle: saline 101 % of control | dose: 80.0 mg/kg/injection, schedule: Q01DX001 (ip), vehicle: saline 104 % of control | [1] 98 % of control

CN(CCCCC(=O)NC(CCC(=O)O)C(=O)O)Cc1cnc2nc(N)nc(N)c2n1 (centres undefined)
inactive: dose: 20.0 mg/kg/injection, schedule: Q01DX009 (ip), vehicle: saline 94 % of control | dose: 40.0 mg/kg/injection, schedule: Q01DX009 (ip), vehicle: saline 112 % of control | dose: 80.0 mg/kg/injection, schedule: Q01DX009 (ip), vehicle: saline 94 % of control

O=C(O)c1ccc2[nH]c(=O)c(=O)[nH]c2c1
inactive: [6] 96 % of control | [8] 101 % of control | [10] 102 % of control

Nc1nc(=O)n(CCCOc2ccccc2)cc1-c1ccc(Cl)c(Cl)c1
inactive: dose: 100.0 mg/kg/injection, schedule: Q01DX001 (ip), vehicle: gum acacia 99 % of control | dose: 200.0 mg/kg/injection, schedule: Q01DX001 (ip), vehicle: gum acacia 94 % of control

Cc1c(CCO)sc[n+]1Cc1ccccc1
inactive: dose: 100.0 mg/kg/injection, schedule: Q04DX002 (ip), vehicle: saline 93 % of control | dose: 200.0 mg/kg/injection, schedule: Q04DX002 (ip), vehicle: saline 100 % of control

CC1(C)C(=NN)C(C)(C)C1O (centres undefined)
inactive: [14] 101 % of control | [15] 104 % of control | dose: 300.0 mg/kg/injection, schedule: Q01DX001 (ip), vehicle: saline 96 % of control

O=S1C=Cc2ccccc21 (centres undefined)
inactive: [5] 101 % of control | [7] 116 % of control | [9] 105 % of control

C=CCC(C(=O)OC)C(=O)C(C)(C)C (centres undefined)
inactive: [16] 100 % of control | [17] 92 % of control | [18] 100 % of control

O=c1oc2ccccc2cc1-c1ccc([N+](=O)[O-])cc1
inactive: [5] 100 % of control | [7] 89 % of control | [9] 89 % of control

NC(=NC1CCCCC1)c1ccc(C(=O)OCc2ccccc2)cc1
inactive: [19] 94 % of control | [20] 89 % of control | [21] 94 % of control

O=C(N/N=C/c1ccc(N(CCCl)CCCl)cc1)c1ccc(C(=O)N/N=C/c2ccc(N(CCCl)CCCl)cc2)cc1
inactive: dose: 50.0 mg/kg/injection, schedule: Q01DX009 (ip), vehicle: Klucel (hydroxypropylcellulose) (HPC) 98 % of control | [4] 90 % of control | [6] 95 % of control | [8] 100 % of control

Cc1cc(Cl)cc(C)c1O
inactive: dose: 75.0 mg/kg/injection, schedule: Q04DX003 (ip), vehicle: saline 114 % of control | dose: 150.0 mg/kg/injection, schedule: Q04DX003 (ip), vehicle: saline 100 % of control | dose: 300.0 mg/kg/injection, schedule: Q04DX003 (ip), vehicle: saline 112 % of control

CCCCCCCCCCCCCCCCCC1=NC(C)(CO)CO1 (centres undefined)
inactive: [6] 102 % of control | [8] 96 % of control | [10] 107 % of control

NC(=O)NN=C1CSSC1
inactive: dose: 1.56 mg/kg/injection, schedule: Q01DX009 (ip), vehicle: saline with Tween-80 101 % of control | dose: 3.12 mg/kg/injection, schedule: Q01DX009 (ip), vehicle: saline with Tween-80 99 % of control | dose: 6.25 mg/kg/injection, schedule: Q01DX009 (ip), vehicle: saline with Tween-80 94 % of control | dose: 6.25 mg/kg/injection, schedule: Q04DX003 (ip), vehicle: saline with Tween-80 97 % of control | [22] 98 % of control and 106 % of control | dose: 12.5 mg/kg/injection, schedule: Q04DX003 (ip), vehicle: saline with Tween-80 97 % of control

Sc1cccc2c(S)cccc12
inactive: dose: 50.0 mg/kg/injection, schedule: Q01DX001 (ip), vehicle: carboxymethylcellulose (CMC) 100 % of control | [19] 97 % of control | [20] 103 % of control | [21] 100 % of control

Cn1cnc2cnc([N+](C)(C)C)nc21
inactive: [23] 103 % of control | dose: 200.0 mg/kg/injection, schedule: Q04DX003 (ip), vehicle: saline 114 % of control

O=C(Cc1ccc(CC(=O)NO)cc1)NO
inactive: [14] 100 % of control | [15] 96 % of control

COc1cc(OC)c(N=Cc2ccc([N+](=O)[O-])s2)cc1Cl
inactive: [6] 101 % of control | [8] 101 % of control | [10] 95 % of control

CCCCOC(=O)CCC(C)=O
inactive: [17] 92 % of control | [11] 109 % of control | [18] 100 % of control | [12] 113 % of control | dose: 400.0 mg/kg/injection, schedule: Q01DX009 (ip), vehicle: saline with Tween-80 96 % of control | [13] 112 % of control

Fc1ccc(N2CCNCC2)cc1
inactive: [22] 104 % of control | dose: 25.0 mg/kg/injection, schedule: Q01DX009 (ip), vehicle: saline with Tween-80 104 % of control | [16] 107 % of control

CC(=O)OC(C)C(C)C(=O)OCC12C3CC4(C)C(=CCC5C6(C)CCC(OC7OC(C(=O)O)C(OC8OC(CO)C(O)C(O)C8O)C(O)C7OC7OCC(O)C(O)C7O)C(C)(CO)C6CCC54C)C1CC(C)(C)C(O3)C2O (centres undefined)
inactive: dose: 5.0 mg/kg/injection, schedule: Q01DX001 (sc), vehicle: steriod suspending solution 105 % of control | dose: 50.0 mg/kg/injection, schedule: Q01DX001 (sc), vehicle: steriod suspending solution 112 % of control

Cc1ccc([N+](=O)[O-])cc1NC(=O)SCCOC(=O)COc1ccc(Cl)cc1
inactive: [16] 97 % of control | [17] 97 % of control and 106 % of control | [18] 103 % of control

CCCCCCCCCCCCc1c2ccccc2cc2ccccc12
inactive: [1] 97 % of control | [2] 98 % of control | [3] 92 % of control

CN(C)C(=O)c1ccc[n+](Cc2ccc(Cl)c(Cl)c2)c1
inactive: [23] 88 % of control
